Assay results published in patent US11230711B2, “Inhibition of LET7I as a means to enhance the protective effect of progesterone against stroke” (UNIVERSITY OF NORTH TEXAS HEALTH SCIENCE CENTER, priority 2017, dated 2022).

How the values were obtained:
Type in all cases: in vivo, mouse
[1] = system: C57BL/6J mice; experiment: Wire suspension (wire hanging) test of grip strength / motor function after MCAo; conditions: Example 2, FIG. 13
Procedure: Animals will be trained 2 days before MCAo procedure and will be tested on day 3, 7, and 14 post stroke. Animals will be allow to suspend their bodies on a single wire stretched between 2 posts 50 cm above the ground. Between the posts, a soft pillow will be placed to avoid injury in case of a fall. Training will be achieved simply with several rounds of habituation and trials. In the actual testing phase, mice will be tested 3 times and average performance is recorded as final values.
All mice were first ovariectomized to deplete endogenous ovarian hormone levels. Two weeks after ovariectomy (OVX), P4 pellets were subcutaneously implanted into these animals to replenish their progesterone levels. In parallel, different groups received cholesterol pellet implantations to serve as vehicle control. One week after pellet implantation, stroke was induced in these mice using middle cerebral artery occlusion (MCAo) procedure. In parallel, different groups received sham operation (non-stroke). […]
wire suspension test: In ordered to assess motor function recovery with different treatments, wire suspension test, a test of grip strength and endurance, was used, as described elsewhere (58). […] The latency for animals to fall off the wire was recorded. […] Performances of these mice was evaluated at day 3, 7 and 14 post stroke.

[2] = system: Pgrmc1; experiment: Pgrmc1 protein in the penumbra after MCAo (Western blot); conditions: MCAo mice; day 7 and day 14; FIG. 11B
Description: (§1) (FIG. 11A) Representative immunoblots probed for Pgrmc1, pro- and mature-BDNF. (FIG. 11B) Quantitation graph of relative Pgrmc1 protein ratio to Gapdh (n=4-5 per group). (FIG. 11C) Quantitation graph of relative pro-BDNF protein ratio to Gapdh (n=4-5 per group). (FIG. 11D) Quantitation graph of relative mature BDNF protein ratio to Gapdh (n=4-5 per group). (FIG. 11E) Quantitation graph of relative let-7i expression in ischemic brain (n=4-5 per group). n.s: not significant, ** P<0.01 and *P<0.05 compared to sham, and #P<0.05 compared to P4+scrambled. Data are presented as the mean±SEM.
(§2) Primary cortical astrocytes and mouse brains were lysed with RIPA lysis buffer containing protease and phosphatase inhibitors, as previously described (44). After homogenization, samples were centrifuged at 45,000 rpm for 30 min at 4° C. and supernatants were collected. Total protein concentrations were determined using the Bio-Rad DC protein assay kit (Bio-Rad Laboratories). Cell lysates were separated by SDS-PAGE and transferred onto polyvinylidene fluoride membrane (Bio-Rad Laboratories) by electroblotting. Membranes were blocked with 5% skim milk in tris-buffered saline containing 0.2% Tween 20 (TBS-T) for 1 h at room temperature, followed by overnight incubations of primary antibodies at 4° C. […]

[3] = system: BDNF; experiment: pro- and mature BDNF protein in the penumbra after MCAo (Western blot); conditions: MCAo mice; 14 days post stroke, compared to sham; FIG. 11D
Description: as §1, §2

CC(=O)[C@H]1CC[C@H]2[C@@H]3CCC4=CC(=O)CC[C@]4(C)[C@H]3CC[C@]12C [P4, progesterone]
motor function recovery (wire suspension test) ([1]; day 7): partial recovery | motor function recovery (wire suspension test) ([1]; day 14): partial recovery | Pgrmc1 protein level in the penumbra [2]: did not restore | mature BDNF level in the penumbra [3]: able to maintain the same level
